Measured values: US20030119733A1, “Compositions and methods for inhibiting hepatocyte invasion by malarial sporozoites” (New York University, priority 1992, published 2003)
“Also recorded” adds a separate entry of the source. Where no end group is shown, it is not given here. The star is where a group is joined. Cam = NC(=O)C*

What was measured:
[1] = tested on: binding of CSFZ (Cys) to HepG2 cells; assay: Peptide inhibition of CSFZ (Cys) binding to HepG2 cells; set-up: species or system human; details: peptides 0-250 μg/ml
Procedure: For indirect immunofluorescence, HepG2 cells (ATCC number HB8065, Rockville, Md.; Knowles, B. P., et al., Science 209:497-499, 1980) were grown on slides (Cel-Line Associates, Inc., Newfield, N.J.) overnight in minimum essential medium with 10% fetal calf serum (FCS-MEM; GIBCO, Grand Island, N.Y.), 1 mM L-glutamine (GIBCO), 3 mg/ml glucose (Sigma), 1×nonessential amino acids (GIBCO), 50 μg/ml penicillin, and 100 μg/ml streptomycin (GIBCO). For the enzyme-linked immunosorbent assay, 10^5 HepG2 cells were deposited in 96-well Falcon tissue culture plates (Becton Dickinson, Oxnard, Calif.) and grown for 24 hr. in FCS-MEM. The cells were fixed with 4% paraformaldehyde, washed three times with PBS, and stored at 4° C. in BSA/TPBS until use. Before the experiments, plates were blocked for 2 hr. at 37° C. with 1% gelatin, 0.05% Tween in PBS (pH 7.4) (gelatin/TPBS). The cells were sequentially incubated at 37° C. with 50 μl of recombinant protein diluted in gelatin/TPBS for 1 hr. MAb 2A10 at a concentration of 10 μg/ml for 30 min. and goat anti-mouse immunoglobulin conjugated to alkaline phosphatase (Boehringer Mannheim) for 30 min. […] After 15 min., fluorescence was read in a Fluoroskan II plate reader (Flow Lab Inc., McLean, Va.) with excitation filter 350 nm and emission filter 460 nm. In the peptide inhibition experiments, wells were first incubated for 1 hr. at 37° C. with peptides diluted in gelatin/TPBS, washed three times with gelatin/TPBS, and then incubated with recombinant CSFZ (Cys) at a concentration of 2.5 μg/ml for 1 hr. at 37° C.
The same assay system was used to evaluate the ability of the various synthetic peptides to inhibit the binding of CSFZ (Cys) to the HepG2 cells. Paraformaldehyde-fixed immobilized HepG2 cells were pre-incubated with peptides at concentrations between 0 and 250 μg/ml, washed, and incubated with CSFZ (Cys) at 2.5 μg/ml. After washing, the cells were incubated with MAb 2A10 followed by anti-mouse IgG conjugated to alkaline phosphatase. […] Each peptide concentration was assayed in triplicate wells and the means of the fluorescent reading were calculated. […] The cysteines and the sulfhydryl groups were necessary for inhibition (Pf1A, Pf1B and Pf2A were not active). […] The results are shown graphically in FIG. 7 wherein percent inhibition (after subtraction of background) is plotted as a function of peptide concentration. Pf1: open circles; Pf2: dark circles; Pf3: open upright triangles; Pf1A dark square; Pf1B open inverted triangles; Pf2A dark triangle; Pf70 open diamond; Pf25C dark diamond. Standard deviations were no greater than ±5% of the plotted mean.

[2] = tested on: binding of CS27IVC to liver sections; assay: Peptide inhibition of CS27IVC binding to frozen liver sections; set-up: species or system rat; details: peptide preincubation, up to 500 μg/ml
Procedure: The procedure was carried out essentially as described by Dukor P. et al., Proc. Natl. Acad. Sci. USA 67:991-997, 1970 and Imai Y. et al., J. Cell. Biol. 111:1225-1232, 1990. Rats were euthanized with CO2. Small pieces of the liver, spleen, heart, brain and lung were removed, snap frozen in liquid nitrogen, embedded in Tissue Tek O.C.T. (Miles, Inc., Naperville, Ill.), and cut into 5 μm sections. Sections were dried for 30 min., fixed for 10 min. in 4% paraformaldehyde, rinsed three times with phosphate-buffered saline (PBS), and either used immediately or stored at 4° C. in 1% BSA, 0.5% Tween, PBS (BSA/TPBS). After blocking with 100 mM glycine (pH 7.2) and with BSA/TPBS, the sections were sequentially incubated at 37° C. with recombinant proteins for 1 hr, 10 μg/ml MAb 2A10 for 45 min., and rat anti-mouse immunoglobulin conjugated to fluorescein isothiocyanate (Boehringer Mannheim, Indianapolis, Ind.) for 45 min. The slides were counterstained for 10 min. with 0.3% Evans blue, rinsed extensively in PBS, and finally observed under a fluorescence microscope. For peptide inhibition experiments, the sections were first incubated with the peptide at various concentrations in BSA/TPBS for 1 hour at 37° C., washed six times with BSA/TPBS, and then stained with 2.5 μg/ml CS recombinant protein as described above. In a few experiments, the tissues were fixed for 10 min. with methanol, acetone, or 4% paraformaldehyde containing 0.5% glutaraldehyde.

[3] = tested on: Vivax-2 binding to cholesterol-sulfate; assay: Inhibition of binding of Vivax-2 to cholesterol-sulfate; set-up: species or system P. vivax
Procedure: (§1) Solid phase binding assays: Thirty μl of lipids or steroids dissolved in methanol (20-250 μg/ml) were dried into wells of microassay plates (Cat.# 3911—Falcon—Oxnard, Calif.). The plates were then blocked with 1% BSA/PBS pH 7.4 (BSA/PBS) for 30 minutes. Wells were incubated with recombinant protein (or with parasite extract) in PBS/BSA for 1 hour, washed 3 times with BSA/PBS, incubated for 1 hour with monoclonal antibodies 2F2 or 2A10 in BSA/PBS, washed 3 times, and then incubated with (10^5 cpm/well) ^125I protein A (Amersham Corp., Arlington Hts., Ill.). In the case of the P. berghei CS protein, wells were incubated with ^125I labelled mAb 3D11. Wells were washed again and the bound radioactive protein was counted in an LKB gamma-counter (model #1260, Pharmacia, Inc., Gaithersburg, Md.). For inhibition assays, the recombinant proteins were mixed with dilutions of the various polymers in BSA/PBS, the mixture was loaded into the wells of the microtiter plates, and the binding assay performed as above. See also, Roberts, et al. J. Biol. Chem. 260:9405-9411, 1985.

P. berghei sporozoites = assay: Infection assay of HepG2 cells with polymers; format: cell-based
Procedure: Infection assay: Semiconfluent monolayers of HepG2 cells were grown in 10% FCS/MEM on 8 chamber slides (#4808 Lab-tek -Naperville, Ill.) for 24 hours prior to each experiment. Sporozoites were pre-incubated in media alone or with the various polymers for 15 minutes at 4° C. 5×10^4 sporozoites, in a volume of 10 μl, were added per chamber. After 4 hours of incubation at 37° C., the medium containing the sporozoites was gently aspirated, and 0.5 ml MEM/10% FCS was added. Fresh medium was added at 18 hours and 28 hours, and then cells were fixed with methanol containing 0.3% H2O2 at 48 hours. After fixation, the wells were blocked with 10% FCS/PBS and were incubated with 10 μg/ml of mAb 2E6. Binding of the mAb was detected with a polyclonal goat anti-mouse Ig conjugated to horseradish peroxidase. […] The parasites in each well are counted under a 40× light microscope objective.
The cells were fixed and stained with mAb 2E6, followed by goat-anti-mouse linked to horseradish peroxidase. Numbers represent schizonts counted/20 fields under 40× magnification in a light microscope.

[4] = tested on: Vivax-2 binding to sulfatide; assay: Inhibition of binding of Vivax-2 to sulfatide; set-up: species or system P. vivax; details: for effect on binding to sulfatide: 1 mg/ml
Procedure: as §1

| Substance | inhibition of CSFZ (Cys) binding to HepG2 cells [1] | inhibition of the binding of CS27IVC to liver sections [2] | % INHIBITION ([3]; inhibitor 10 mg/ml) [%] | effect on binding to sulfatide [4] | % INHIBITION ([4]; inhibitor 1 mg/ml) [%] | also measured |
| --- | --- | --- | --- | --- | --- | --- |
| AGNGIQVRIKPGSANKPKDE [Pf2A, Identical to Pf2 except the first cysteine has been replaced by an alanine residue] | not active | failed to inhibit |  |  |  |  |
| CGNGIQVRIKPGSANKPKDE [Pf2] | inhibited the CSFZ (Cys) binding; also recorded: competes much less effectively | inhibited the binding of CS27IVC |  |  |  |  |
| KPKHKKLKQPADGNPDPNAN [Pf70] | no inhibitory effect | failed to inhibit |  |  |  |  |
| PASVTAGNGIQVRIKPGSAN [Pf1A, Identical to Pf1 except alanine residues are substituted for the two cysteines] | not active | failed to inhibit |  |  |  |  |
| PCSVTCGNGIQVRIKPGSAN [Pf1] | inhibited the CSFZ (Cys) binding; also recorded: competes very effectively | inhibited the binding of CS27IVC |  |  |  |  |
| PGSANKPKDELDYANDIEKK [Pf3, Contains only a C-proximal moiety of Region II+] |  | failed to inhibit; also recorded: No inhibition of binding |  |  |  |  |
| PXSVTXGNGIQVRIKPGSAN (PC(Cam)SVTC(Cam)GNGIQVRIKPGSAN) [Pf1B] | not active | failed to inhibit |  |  |  |  |
| chondroitin-sulfate A [CHONDROITIN SULFATE-A] |  |  | 16 | no effect | 0 | % INHIBITION ([3]; inhibitor 1 mg/ml): 0%; PARASITE # (exoerythrocytic liver stages in 20 microscope fields, duplicate) (P. berghei sporozoites; inhibitor 5 μg/ml present during invasion): 250; effect on sporozoite invasion (P. berghei sporozoites; present during invasion, 5-50 μg/ml): no effect |
| chondroitin-sulfate B [CHONDROITIN SULFATE-B] |  |  |  | only slightly inhibitory | 34.3 | % INHIBITION ([3]; inhibitor 0 mg/ml (so in the source)): 51%; % INHIBITION ([3]; inhibitor 100 μg/ml): 0%; % INHIBITION ([3]; inhibitor 1 mg/ml): 27%; % INHIBITION ([4]; inhibitor 100 μg/ml): 22.3% |
| chondroitin-sulfate C [CHONDROITIN SULFATE-C] |  |  | 0 | no effect | 0 |  |
| dermatan sulfate |  |  |  | no effect |  |  |
| hyaluronic acid |  |  | 28 | no effect | 0 | % INHIBITION ([3]; inhibitor 1 mg/ml): 0% |
| keratan-sulfate |  |  | 0 | no effect | 37 |  |
